The target in the first data set is 2009 H1N1 influenza A endonuclease (PAN domain) (Influenza A virus, UniProt C3W5S0). The data set is described as follows: biochemical. Further details: species or system Influenza A (pandemic 2009 H1N1). The note with it: 500 nM or 50 nM enzyme; fluorescence change over time at 37 degrees Celsius; read-out: IC50 (uM) using either 500 nM or 50 nM enzyme.
With `O=c1[nH]nc(-c2ccc(-c3nnn[nH]3)cc2)cc1O` [6-(4-(1H-Tetrazol-5-yl)phenyl)-4-hydroxypyridazin-3(2H)-one], the IC50 (as a rule, the point on the concentration scale where inhibition reaches its midpoint) was 3 µM. On to `O=c1[nH]c(-c2ccc(F)cc2)ccc1O` [6-(4-Fluoro-phenyl)-3-hydroxypyridin-2(1H)-one], for which the 50% inhibitory concentration (IC50) was found to be 0.43 µM. On the same count and under the same terms, then `N#Cc1cccc(-c2ncc(O)c(=O)[nH]2)c1` [3-(5-Hydroxy-6-oxo-1,6-dihydropyrimidin-2-yl)benzonitrile], with 0.25 µM. Still for that read-out and setting: the value for `O=c1[nH]cc(-c2ccc(F)cc2)cc1O` [5-(4-Fluorophenyl)-3-hydroxypyridin-2(1H)-one] was 0.73 µM. `O=c1[nH]c(-c2ccc(-c3nnn[nH]3)cc2)ncc1O` [2-(4-(1H-Tetrazol-5-yl)phenyl)-5-hydroxypyrimidin-4(3H)-one]: the IC50 is 0.15 µM. Same read-out and setting: the value for `N#Cc1ccc(-c2cc(O)c(=O)[nH]n2)cc1` [4-(5-Hydroxy-6-oxo-1,6-dihydropyridazin-3-yl)benzonitrile] was 9.3 µM; that for `N#Cc1ccc(-c2ncc(O)c(=O)[nH]2)cc1` [4-(5-Hydroxy-6-oxo-1,6-dihydropyrimidin-2-yl)benzonitrile] was 0.52 µM. The same measure, in the same setting: then `O=c1[nH]nc(-c2ccc(F)cc2)cc1O` [6-(4-Fluorophenyl)-4-hydroxypyridazin-3(2H)-one], with 6 µM. Same read-out and setting: the value for `O=c1[nH]c(-c2cccc(-c3nnn[nH]3)c2)ncc1O` [2-(3-(1H-Tetrazol-5-yl)phenyl)-5-hydroxypyrimidin-4(3H)-one] was 0.48 µM.

For `O=c1[nH]c(-c2ccc(F)cc2)ncc1O` [2-(4-Fluorophenyl)-5-hydroxypyrimidin-4(3H)-one], the IC50 was determined as 0.58 µM.

The same data set, now with this note: IC50 (uM) using either 500 nM or 50 nM enzyme, fluorescence change over time at 37 degrees Celsius.
The compound `O=c1[nH]c(-c2ccc(-c3nnn[nH]3)cc2)ccc1O` [6-[4-(1H-tetrazol-5-yl)phenyl]-3-hydroxypyridin-2(1H)-one] registered an IC50 of 0.85 µM. The same measure, in the same setting: the value for `O=C(O)c1cccc(-c2cc(O)c(=O)[nH]c2-c2ccc(F)cc2)c1` [3-(2-(4-Fluorophenyl)-5-hydroxy-6-oxo-1,6-dihydropyridin-3-yl)benzoic acid] was 0.035 µM; that for `O=c1[nH]c(-c2ccc(-c3nnn[nH]3)cc2)c(-c2ccc(-c3nnn[nH]3)cc2)cc1O` [5,6-bis[4-(1H-Tetrazol-5-yl)phenyl]-3-hydroxypyridin-2(1H)-one] was 0.29 µM. Still for that read-out and setting: the value for `O=C(O)c1ccc(-c2c[nH]c(=O)c(O)c2)cc1` [4-(5-Hydroxy-6-oxo-1,6-dihydropyridin-3-yl)benzoic acid] was 0.51 µM; that for `O=c1[nH]cc(-c2ccc(-c3nnn[nH]3)cc2)cc1O` [5-[4-(1H-Tetrazol-5-yl)phenyl]-3-hydroxypyridin-2(1H)-one] was 0.37 µM. `O=c1[nH]c(C2CCCCC2)ccc1O` [6-Cyclohexyl-3-hydroxypyridin-2(1H)-one] gave a concentration for half-maximal inhibition (IC50) of 2.5 µM. Still for that read-out and setting: then `N#Cc1ccc(-c2c[nH]c(=O)c(O)c2)cc1` [5-(p-Cyanophenyl-3-hydroxypyridin-2(1H)-one], with 6.07 µM. In turn, `O=c1[nH]cc(-c2cccc(-c3nnn[nH]3)c2)cc1O` [5-[3-(1H-Tetrazol-5-yl)phenyl]-3-hydroxypyridin-2(1H)-one] yielded an IC50 of 0.85 µM.

Regarding `N#Cc1cccc(-c2cc(O)c(=O)[nH]c2-c2ccc(F)cc2)c1` [3-(2-(4-Fluorophenyl)-5-hydroxy-6-oxo-1,6-dihydropyridin-3-yl)benzonitrile], the IC50 worked out at 0.049 µM. The same measure, in the same setting: the value for `O=c1[nH]cc(C2CCCCC2)cc1O` [5-Cyclohexyl-3-hydroxypyridin-2(1H)-one] was 2.1 µM; that for `O=c1[nH]c(-c2ccc(C(F)(F)F)cc2)ccc1O` [3-Hydroxy-6-(4-(trifluoromethyl)phenyl)pyridin-2(1H)-one] was 0.4 µM. On the same count and under the same terms, the value for `O=c1[nH]c(-c2ccc([N+](=O)[O-])cc2)c(-c2ccc([N+](=O)[O-])cc2)cc1O` [3-Hydroxy-5,6-bis(4-nitrophenyl)pyridin-2(1H)-one] was 0.72 µM. The same measure, in the same setting: then `O=c1[nH]c(Br)c(-c2ccc(F)cc2)cc1O` [6-Bromo-5-(4-fluorophenyl)-3-hydroxypyridin-2(1H)-one], with 4.2 µM. `O=c1[nH]c(-c2ccc(O)c(O)c2)ccc1O` [6-(3,4-Dihydroxyphenyl)-3-hydroxypyridin-2(1H)-one]: the IC50 worked out at 0.6 µM. On the same count and under the same terms, the value for `O=C(O)c1cccc(-c2c[nH]c(=O)c(O)c2)c1` [3-(5-Hydroxy-6-oxo-1,6-dihydropyridin-3-yl)benzoic acid] was 1.79 µM. Still for that read-out and setting: then `O=c1[nH]c(-c2cccc(F)c2)c(-c2cccc(F)c2)cc1O` [5,6-bis(3-Fluorophenyl)-3-hydroxypyridin-2(1H)-one], with 0.044 µM; and `N#Cc1ccc(-c2cc(O)c(=O)[nH]c2-c2ccc(F)cc2)cc1` [5-(4-Cyanophenyl)-6-(4-fluorophenyl)-3-hydroxypyridin-2(1H)-one], with 0.136 µM. Same read-out and setting: the value for `O=c1[nH]cc(Cl)cc1O` [5-Chloro-3-hydroxypyridin-2(1H)-one] was 5 µM; that for `N#Cc1ccc(-c2cc(O)c(=O)[nH]c2-c2ccc(C#N)cc2)cc1` [5,6-bis(4-Cyanophenyl)-3-hydroxypyridin-2(1H)-one] was 0.1 µM; that for `O=c1[nH]cc(Br)cc1O` [5-Bromo-3-hydroxypyridin-2(1H)-one] was 5 µM. Take `O=c1[nH]ncc(-c2ccc(F)cc2)c1O` [5-(4-Fluorophenyl)-4-hydroxypyridazin-3(2H)-one]: the IC50 is > 200 µM. Still for that read-out and setting: the value for `COc1ccc(-c2ccc(O)c(=O)[nH]2)cc1` [3-Hydroxy-6-(4-methoxyphenyl)pyridin-2(1H)-one] was 1.2 µM; that for `CC(C)(C)c1ccc(-c2ccc(O)c(=O)[nH]2)cc1` [6-(4-(tert-Butyl)phenyl)-3-hydroxypyridin-2(1H)-one] was 1.6 µM; that for `NC(=O)c1cccc(-c2cc(O)c(=O)[nH]c2-c2cccc(C(N)=O)c2)c1` was 0.11 µM. On the same count and under the same terms, the value for `N#Cc1ccc(-c2ccc(O)c(=O)[nH]2)cc1` [6-(4-Cyanophenyl-3-hydroxypyridin-2(1H)-one] was 1.2 µM; that for `O=c1[nH]cc(-c2cccc(F)c2)cc1O` [5-(3-Fluorophenyl-3-hydroxypyridin-2(1H)-one] was 0.74 µM; that for `O=c1[nH]c(Cc2ccc(-c3ccccc3)cc2)c(-c2ccc(F)cc2)cc1O` [6-([1,1′-Biphenyl]-4-ylmethyl)-5-(4-fluorophenyl)-3-hydroxypyridin-2(1H)-one] was 0.12 µM. Turning to `O=c1[nH]c(-c2ccc(-c3nnn[nH]3)cc2)c(-c2ccc(F)cc2)cc1O` [6-(4-(1H-Tetrazol-5-yl)phenyl)-5-(4-fluorophenyl)-3-hydroxypyridin-2(1H)-one], the IC50 amounted to 0.018 µM. As for `NC(=O)c1ccc(-c2cc(O)c(=O)[nH]c2-c2ccc(C(N)=O)cc2)cc1`, the IC50 is 0.23 µM. On the same count and under the same terms, the value for `O=c1[nH]cc(Cc2ccc(F)cc2)cc1O` [5-(4-Fluorobenzyl)-3-hydroxypyridin-2(1H)-one] was 8.6 µM.

In turn, `O=c1[nH]c(-c2cccc(F)c2)ccc1O` [6-(3-Fluorophenyl)-3-hydroxypyridin-2(1H)-one] had an IC50 of 0.53 µM.

In turn, `O=c1[nH]c(Br)c(Br)cc1O` [5,6-Dibromo-3-hydroxypyridin-2(1H)-one] returned an IC50 of 1.5 µM. The same measure, in the same setting: then `O=C(O)c1cccc(-c2cc(O)c(=O)[nH]c2-c2cccc(C(=O)O)c2)c1` [3,3′-(5-Hydroxy-6-oxo-1,6-dihydropyridine-2,3-diyl)dibenzoic acid], with 0.7 µM; and `COc1cccc(-c2ccc(O)c(=O)[nH]2)c1` [6-(3-Methoxyphenyl)-3-hydroxypyridin-2(1H)one], with 0.54 µM; and `O=c1[nH]c(C2=CCCCC2)ccc1O` [6-(Cyclohex-1-en-1-yl)-3-hydroxypyridin-2(1H)-one], with 0.75 µM. The same measure, in the same setting: then `N#Cc1ccc(-c2[nH]c(=O)c(O)cc2-c2ccc(F)cc2)cc1` [5-(4-Fluorophenyl)-6-(4-cyanophenyl)-3-hydroxypyridin-2(1H)-one], with 0.054 µM; and `O=c1[nH]c(-c2ccc(F)cc2)c(-c2cccc(-c3nnn[nH]3)c2)cc1O` [5-(3-(1H-Tetrazol-5-yl)phenyl)-6-(4-fluorophenyl)-3-hydroxypyridin-2(1H)-one], with 0.034 µM. Same read-out and setting: the value for `O=c1[nH]cnc(-c2ccc(F)cc2)c1O` [6-(4-Fluorophenyl)-5-hydroxypyrimidin-4(3H)-one] was 193 µM. As to `O=c1[nH]cc(-c2ccccc2)cc1O` [5-Phenyl-3-hydroxypyridin-2(1H)-one], the IC50 is > 10 µM. For `N#Cc1ccc(Nc2cc(O)c(=O)[nH]c2-c2ccc(F)cc2)cc1` [4-((2-(4-Fluorophenyl)-5-hydroxy-6-oxo-1,6-dihydropyridin-3-yl)amino)benzonitrile], the half-inhibitory concentration (IC50) is 1 µM. Still for that read-out and setting: the value for `O=C(O)c1ccc(-c2cc(O)c(=O)[nH]c2-c2ccc(C(=O)O)cc2)cc1` [4,4′-(5-hydroxy-6-oxo-1,6-dihydropyridine-2,3-diyl)dibenzoic acid] was 0.9 µM.

System in the next data set: not given
Assay: not given
Details: not given
Regarding `O=c1[nH]c(-c2ccc(F)cc2)c(-c2ccc(-c3nnn[nH]3)cc2)cc1O` [5-[4-(1H-Tetrazol-5-yl)phenyl]-6-(4-fluorophenyl)-3-hydroxypyridin-2(1H)-one], the melting point (commonly the temperature of the solid-liquid transition) was in the range of 185 to 188 °C. Take `O=c1[nH]c(-c2ccc(-c3nnn[nH]3)cc2)c(-c2ccc(-c3nnn[nH]3)cc2)cc1O` [5,6-bis[4-(1H-Tetrazol-5-yl)phenyl]-3-hydroxypyridin-2(1H)-one]: the melting point was 180 to 182 °C. Still for that read-out and setting: then `N#Cc1ccc(-c2cc(O)c(=O)[nH]c2-c2ccc(F)cc2)cc1` [5-(4-Cyanophenyl)-6-(4-fluorophenyl)-3-hydroxypyridin-2(1H)-one], with 255 to 257 °C; and `N#Cc1ccc(-c2cc(O)c(=O)[nH]c2-c2ccc(C#N)cc2)cc1` [5,6-bis(4-Cyanophenyl)-3-hydroxypyridin-2(1H)-one], with 159 to 162 °C.

For the compound `O=c1[nH]ncc(-c2ccc(F)cc2)c1O` [5-(4-Fluorophenyl)-4-hydroxypyridazin-3(2H)-one], the melting point was 274 to 276 °C. Still for that read-out and setting: the value for `N#Cc1ccc(-c2cc(O)c(=O)[nH]n2)cc1` [4-(5-Hydroxy-6-oxo-1,6-dihydropyridazin-3-yl)benzonitrile] was 305 to 307 °C. Still for that read-out and setting: then `O=c1[nH]nc(-c2ccc(F)cc2)cc1O` [6-(4-Fluorophenyl)-4-hydroxypyridazin-3(2H)-one], with 281 to 283 °C; and `N#Cc1ccc(-c2[nH]c(=O)c(O)cc2-c2ccc(F)cc2)cc1` [5-(4-Fluorophenyl)-6-(4-cyanophenyl)-3-hydroxypyridin-2(1H)-one], with 255 to 258 °C. On the same count and under the same terms, the value for `O=c1[nH]c(-c2ccc(F)cc2)ncc1O` [2-(4-Fluorophenyl)-5-hydroxypyrimidin-4(3H)-one] was 252 to 254 °C; that for `O=c1[nH]cnc(-c2ccc(F)cc2)c1O` [6-(4-Fluorophenyl)-5-hydroxypyrimidin-4(3H)-one] was 285 to 287 °C. On to `O=c1[nH]cc(-c2ccccc2)cc1O` [5-Phenyl-3-hydroxypyridin-2(1H)-one], for which the melting point was in the range of 175 to 177 °C.

`O=c1[nH]c(-c2ccc(F)cc2)c(-c2ccc(F)cc2)cc1O` [5,6-bis(4-Fluorophenyl)-3-hydroxypyridin-2(1H)-one] displayed a melting point of 152 to 157 °C.

Source of the values: US9573938B2 (priority 2012, dated 2017).
